From ChEMBL document CHEMBL5465560, “Selectivity Literature for EUbOPEN Chemogenomic Library” (2024)

Experiments:
[1] = molecular target: T1, Serine/threonine-protein kinase LATS1 (Homo sapiens) (UniProt O95835); assay: Selectivity interaction (Kinase panel (KiNativ target engagement assay in Jurkat cells)) EUB0001635a LATS1; assay type: cell-based; conditions: at 1 µM
T1 sequence (whole entry): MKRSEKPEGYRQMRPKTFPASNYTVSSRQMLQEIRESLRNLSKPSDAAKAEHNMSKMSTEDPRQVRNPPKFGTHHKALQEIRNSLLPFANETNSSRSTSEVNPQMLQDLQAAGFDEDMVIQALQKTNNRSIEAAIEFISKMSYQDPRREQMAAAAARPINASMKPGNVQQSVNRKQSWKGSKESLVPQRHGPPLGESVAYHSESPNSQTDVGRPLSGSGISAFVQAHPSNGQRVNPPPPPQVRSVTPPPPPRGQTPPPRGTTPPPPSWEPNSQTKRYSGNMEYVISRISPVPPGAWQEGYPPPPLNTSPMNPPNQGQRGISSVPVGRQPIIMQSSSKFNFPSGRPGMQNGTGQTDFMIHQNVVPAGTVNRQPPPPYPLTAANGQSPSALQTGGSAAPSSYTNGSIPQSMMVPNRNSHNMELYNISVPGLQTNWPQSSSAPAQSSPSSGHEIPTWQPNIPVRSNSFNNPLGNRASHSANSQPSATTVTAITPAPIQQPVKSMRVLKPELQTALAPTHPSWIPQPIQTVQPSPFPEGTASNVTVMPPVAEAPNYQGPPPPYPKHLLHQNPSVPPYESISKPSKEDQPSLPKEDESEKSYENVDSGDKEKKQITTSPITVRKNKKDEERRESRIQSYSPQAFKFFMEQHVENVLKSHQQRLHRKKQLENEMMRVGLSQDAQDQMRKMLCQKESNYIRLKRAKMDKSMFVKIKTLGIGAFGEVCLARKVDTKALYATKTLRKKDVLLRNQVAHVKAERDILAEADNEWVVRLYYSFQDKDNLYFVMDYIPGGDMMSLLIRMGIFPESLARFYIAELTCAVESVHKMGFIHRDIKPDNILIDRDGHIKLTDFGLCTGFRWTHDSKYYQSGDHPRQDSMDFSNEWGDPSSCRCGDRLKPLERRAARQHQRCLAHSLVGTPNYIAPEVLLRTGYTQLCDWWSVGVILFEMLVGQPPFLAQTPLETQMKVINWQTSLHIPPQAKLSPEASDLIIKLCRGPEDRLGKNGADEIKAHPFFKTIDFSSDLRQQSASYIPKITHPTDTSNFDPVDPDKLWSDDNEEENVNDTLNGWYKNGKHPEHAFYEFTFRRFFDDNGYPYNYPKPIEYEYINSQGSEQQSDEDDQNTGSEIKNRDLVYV

[2] = molecular target: T2, Interleukin-1 receptor-associated kinase 4 (Homo sapiens) (UniProt Q9NWZ3); assay: Selectivity interaction (KinomeScan (DiscoverX)) EUB0000595a IRAK4; conditions: at 10 µM
T2 sequence (whole entry): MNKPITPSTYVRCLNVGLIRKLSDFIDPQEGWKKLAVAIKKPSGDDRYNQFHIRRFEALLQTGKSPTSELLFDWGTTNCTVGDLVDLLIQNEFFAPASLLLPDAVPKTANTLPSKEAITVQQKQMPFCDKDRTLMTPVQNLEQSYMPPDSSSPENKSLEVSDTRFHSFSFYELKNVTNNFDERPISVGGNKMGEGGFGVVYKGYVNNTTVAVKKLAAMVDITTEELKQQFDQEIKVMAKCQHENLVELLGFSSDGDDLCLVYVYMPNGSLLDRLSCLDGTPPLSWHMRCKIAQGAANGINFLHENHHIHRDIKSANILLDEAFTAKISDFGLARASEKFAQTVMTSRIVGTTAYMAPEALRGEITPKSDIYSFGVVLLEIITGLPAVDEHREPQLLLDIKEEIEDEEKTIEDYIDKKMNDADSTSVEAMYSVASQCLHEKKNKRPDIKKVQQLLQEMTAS

[3] = molecular target: T3, Mitogen-activated protein kinase kinase kinase 7 (Homo sapiens) (UniProt O43318); assay: Selectivity interaction (ActivX KiNativ screen (ex vivo kinase selectivity in human PBMCs)) EUB0001619a MAP3K7; assay type: cell-based; conditions: PBMC, at 1 µM
T3 sequence (whole entry): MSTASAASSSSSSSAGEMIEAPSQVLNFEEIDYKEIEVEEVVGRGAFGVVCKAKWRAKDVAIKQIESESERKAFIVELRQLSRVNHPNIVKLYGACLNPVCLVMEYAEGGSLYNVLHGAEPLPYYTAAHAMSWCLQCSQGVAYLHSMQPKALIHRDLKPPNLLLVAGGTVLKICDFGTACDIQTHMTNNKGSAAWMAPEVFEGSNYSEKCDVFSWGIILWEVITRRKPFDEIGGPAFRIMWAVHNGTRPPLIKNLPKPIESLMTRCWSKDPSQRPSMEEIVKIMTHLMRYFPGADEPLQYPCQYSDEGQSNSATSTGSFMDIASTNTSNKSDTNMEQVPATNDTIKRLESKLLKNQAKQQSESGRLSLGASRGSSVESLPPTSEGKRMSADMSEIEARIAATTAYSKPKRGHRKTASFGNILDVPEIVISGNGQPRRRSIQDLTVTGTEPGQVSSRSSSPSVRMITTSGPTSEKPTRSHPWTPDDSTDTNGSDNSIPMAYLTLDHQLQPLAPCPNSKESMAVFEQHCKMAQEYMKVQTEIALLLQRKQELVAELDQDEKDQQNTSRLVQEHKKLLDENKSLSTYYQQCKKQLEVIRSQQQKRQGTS

[4] = molecular target: T1, Serine/threonine-protein kinase LATS1 (Homo sapiens); assay: Selectivity interaction (KinomeScan (DiscoverX)) EUB0001619a LATS1; conditions: at 1 µM
[5] = molecular target: Cyclin-dependent kinase 4/cyclin D1 (Homo sapiens) (UniProt P11802+P24385); assay: (§1) Selectivity interaction (KinomeScan (DiscoverX)) EUB0000092b CDK4; assay type: protein-complex assay; conditions: at 10 µM
[6] = molecular target: CDK4/Cyclin D3 (Homo sapiens) (UniProt P11802+P30281); assay: as §1; assay type: protein-complex assay; conditions: at 10 µM
[7] = molecular target: SRSF protein kinase 2 (Homo sapiens) (UniProt P78362); assay: Selectivity interaction (KinomeScan (DiscoverX)) EUB0000092b SRPK2; conditions: at 10 µM
SRSF protein kinase 2 (Homo sapiens), sequence (P78362 whole entry, looked up): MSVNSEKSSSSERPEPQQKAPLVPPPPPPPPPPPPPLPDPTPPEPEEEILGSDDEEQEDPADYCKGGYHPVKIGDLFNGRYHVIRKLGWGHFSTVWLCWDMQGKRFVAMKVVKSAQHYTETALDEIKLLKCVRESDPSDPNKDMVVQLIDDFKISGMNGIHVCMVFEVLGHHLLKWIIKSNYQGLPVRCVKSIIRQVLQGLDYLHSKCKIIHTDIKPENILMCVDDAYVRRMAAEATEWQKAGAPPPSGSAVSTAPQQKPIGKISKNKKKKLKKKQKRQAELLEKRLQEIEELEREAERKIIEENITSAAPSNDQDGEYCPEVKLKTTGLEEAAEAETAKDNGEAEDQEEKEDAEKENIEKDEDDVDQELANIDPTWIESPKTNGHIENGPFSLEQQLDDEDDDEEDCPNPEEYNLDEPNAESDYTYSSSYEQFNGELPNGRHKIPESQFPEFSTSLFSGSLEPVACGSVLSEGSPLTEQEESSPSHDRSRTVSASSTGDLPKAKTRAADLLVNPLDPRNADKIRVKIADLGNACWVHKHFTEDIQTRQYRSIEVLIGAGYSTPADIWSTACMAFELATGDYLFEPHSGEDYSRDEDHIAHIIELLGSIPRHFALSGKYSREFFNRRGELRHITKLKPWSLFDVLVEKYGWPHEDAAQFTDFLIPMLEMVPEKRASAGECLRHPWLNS

C=CC(=O)Nc1ccc(C(=O)Nc2[nH]nc3c2CN(C(=O)N[C@H](CN(C)C)c2ccccc2)C3(C)C)cc1
% of engagement [1]: 3.9%

COCC(=O)NC/C=C/c1ccc2ncnc(Nc3ccc(Oc4ccc(C)nc4)c(C)c3)c2c1 [CP-724714]
% of control [2]: 100%

N#Cc1cccc(-c2c[nH]c3ncnc(N4CCOCC4)c23)c1
% of inhibition [3]: 21% | % of control [4]: 100%

CCC(=O)N1CCN(c2ccc(-n3c(=O)ccc4cnc5ccc(-c6cnc7ccccc7c6)cc5c43)cc2C(F)(F)F)CC1
% of control [5]: 100% | % of control [6]: 87% | % of control [7]: 100%
